Laboratory results taken from PubChem BioAssay AID1918952 (Molecular Pharmacology Branch, DTP, NCI, 2023).

System: LG0703-F948-PDC complex spheroid viability
Experiment: Anticancer human tumor LG0703-F948-PDC patient-derived lung adenocarcinoma cell line growth inhibition
Conditions: for IC50: curve of first compound; for viability, T/C: stronger effect = lower value
Excerpt: Multicellular complex tumor spheroid response to LSD1 Inhibitor Iadademstat in combination with a variety of drugs and investigational agents in selected tumor cell lines
The current study was undertaken to assess response to LSD1 inhibitors in combination with standard-of-care drugs and investigational agents in solid tumor complex spheroid models as well as in the K-562 leukemia. Complex spheroids include a stromal component modeled by human endothelial cells (HUVEC) and fibroblasts modeled by human mesenchymal stem cells (MSCs). The concentration ranges selected for each drug and investigational agent were based upon clinically achievable concentrations if the clinical Cmax of the agent was known.
Compounds. The drugs and investigational agents used in this study are listed on Table 1. All of the agents used, including staurosporine (NSC755774) and gemcitabine (NSC613327), were obtained from the Developmental Therapeutics Program, NCI. FDA-approved anticancer drugs are available from the NCI at http://dtp.nci.nih.gov/branches/dscb/oncology_drugset_explanation.html. Drugs and investigational agents were >95% pure by proton nuclear magnetic resonance (NMR) and liquid chromatography/mass spectrometry (LC/MS). Stock solutions were prepared at 400x in DMSO, stored at -70 degrees C, and diluted in fresh medium prior to their use. The final concentration of DMSO in cell culture wells never exceeded 0.25% (v/v). The FDA-approved anticancer drug set is available from the Developmental Therapeutics Program at https://dtp.cancer.gov/organization/dscb/obtaining/available_plates.htm. All drugs and investigational agents were tested over a range starting from a high concentration at or near the clinical Cmax and decreasing in half-log increments. If the clinical Cmax for an agent had not been determined, the highest concentration tested was 10 microM.
Cell Lines. The patient-derived cancer cell (PDC) lines: 292921-168-R-J2-PDC, K24384-001-R-PDC, and 521955-158-R2-J5-PDC pancreatic carcinomas, 556581-035-R-J1 ovarian carcinoma, 324938-238-R-J1-PDC, 855422-203-R-J1-PDC and 883617-216-R-J1-PDC urothelial bladder carcinomas, 743489-274-T-PDC renal cell carcinoma, 138582-R-J1 Merkel cell tumor, K60290-347-R-J1 and K57222-313-R-J1-PDC glioblastomas, 653999-131-R-J2-PDC, LG0703-F948-PDC, and 349418-098-R-PDC non-small cell lung carcinomas, 885512-296-R-J2-PDC, 171881-019-R-J1-PDC breast carcinomas and 186277-243-T-J2-PDC and 233499-124-R-J2-PDC colon carcinomas were obtained from the NCI Patient-Derived Models Repository (PDMR, https://pdmr.cancer.gov). The established cell lines NCI/ADR-RES (RRID:CVCL_14520 and OVCAR-5 (RRID:CVCL_1628) ovarian carcinomas, 786-O (RRID:CVCL_1051) and A498 (RRID:CVCL_A498) renal cell carcinoma, NCI-H211 (ATCC, cat. CRL-5824; RRID:CVCL_1529), NCI-H196 (ATCC, cat. CRL-5823, RRID:CVCL_1509), SW 1271 (ATCC, cat. CRL-2177, RRID:CVCL_1716) and NCI-H1876 (ATCC, cat. CRL-5902, RRID:CVCL_1503) small cell lung carcinomas, MDA-MB-231 (RRID:CVCL_0062) and MDA-MB-468 (RRID:CVCL_0419)breast carcinomas (10-12). Pooled donor human umbilical vein endothelial cells (HUVEC, Lonza, cat. CC-2519) and human mesenchymal stem cells (hMSC, Lonza, cat. PT-2501) were purchased from Lonza (Walkersville, MD).
Cell Culture. All cells were maintained in an incubator at 37 degrees C and 5% CO2 with 95% humidity. The PDC lines were cultured according to standard operating procedures established by the NCI PDMR (https://pdmr.cancer.gov). Briefly all PDCs were thawed and cultured in Matrigel-coated flasks prepared with a working solution of 1X Ham's F-12 nutrient mix, without supplementation (Invitrogen, Waltham, MA, cat. 11765054), 100 U/mL penicillin-streptomycin (Invitrogen, cat. 15140122), and 2.5% Matrigel (Corning Inc., Corning, NY, cat. 354248) for the first three passages. […]

[1] = second compound 0.1 µM, first compound 0.000316 µM
[2] = second compound 0.1 µM, first compound 0.001 µM
[3] = second compound 0.1 µM, first compound 0.00316 µM
[4] = second compound 0.1 µM, first compound 0.01 µM
[5] = second compound 0.1 µM, first compound 0.0316 µM
[6] = second compound 0.1 µM, first compound 0.1 µM
[7] = second compound 0.316 µM, first compound 0.000316 µM
[8] = second compound 0.316 µM, first compound 0.001 µM
[9] = second compound 0.316 µM, first compound 0.00316 µM
[10] = second compound 0.316 µM, first compound 0.01 µM
[11] = second compound 0.316 µM, first compound 0.0316 µM
[12] = second compound 0.316 µM, first compound 0.1 µM
[13] = second compound 1 µM, first compound 0.000316 µM
[14] = second compound 1 µM, first compound 0.001 µM
[15] = second compound 1 µM, first compound 0.00316 µM
[16] = second compound 1 µM, first compound 0.01 µM
[17] = second compound 1 µM, first compound 0.0316 µM
[18] = second compound 1 µM, first compound 0.1 µM
[19] = second compound 3.16 µM, first compound 0.000316 µM
[20] = second compound 3.16 µM, first compound 0.001 µM
[21] = second compound 3.16 µM, first compound 0.00316 µM
[22] = second compound 3.16 µM, first compound 0.01 µM
[23] = second compound 3.16 µM, first compound 0.0316 µM
[24] = second compound 3.16 µM, first compound 0.1 µM
[25] = second compound 10 µM, first compound 0.000316 µM
[26] = second compound 10 µM, first compound 0.001 µM
[27] = second compound 10 µM, first compound 0.00316 µM
[28] = second compound 10 µM, first compound 0.01 µM
[29] = second compound 10 µM, first compound 0.0316 µM
[30] = second compound 10 µM, first compound 0.1 µM
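Further: spheroids exposed to agents for seven days before readout.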
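Wherever viability, T/C is given: 100% = DMSO vehicle control wells as normalization base.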

SMILES | IC50 (second compound 0.1 µM) | IC50 (second compound 0.316 µM) | IC50 (second compound 1 µM) | IC50 (second compound 3.16 µM) | IC50 (second compound 10 µM) | viability, T/C [1] | viability, T/C [2] | viability, T/C [3] | viability, T/C [4] | viability, T/C [5] | viability, T/C [6] | viability, T/C [7] | viability, T/C [8] | viability, T/C [9] | viability, T/C [10] | viability, T/C [11] | viability, T/C [12] | viability, T/C [13] | viability, T/C [14] | viability, T/C [15] | other results
CC[C@@]1(O)C(=O)OCc2c1cc1n(c2=O)Cc2cc3c(CN(C)C)c(O)ccc3nc2-1 + NC1CC1c1ccc(-c2cccc(O)c2)cc1 | > 100 nM | > 100 nM | > 100 nM | > 100 nM | > 100 nM | 117% | 116% | 106% | 84.8% | 70% | 49.7% | 118% | 107% | 106% | 82.8% | 64.5% | 55.3% | 114% | 109% | 97.8% | viability, T/C [16]: 95.2%; viability, T/C [17]: 67.1%; viability, T/C [18]: 54.3%; viability, T/C [19]: 108%; viability, T/C [20]: 97.2%; viability, T/C [21]: 100%; viability, T/C [22]: 89.2%; viability, T/C [23]: 81.9%; viability, T/C [24]: 71.5%; viability, T/C [25]: 103%; viability, T/C [26]: 115%; viability, T/C [27]: 107%; viability, T/C [28]: 76.5%; viability, T/C [29]: 78.8%; viability, T/C [30]: 62.1%
Cn1ncnc1C1c2n[nH]c(=O)c3cc(F)cc(c23)NC1c1ccc(F)cc1 (stereo not given) + NC1CC1c1ccc(-c2cccc(O)c2)cc1 | > 100 nM | > 100 nM | > 100 nM | > 100 nM | > 100 nM | 105% | 114% | 94.9% | 100% | 108% | 125% | 113% | 114% | 117% | 100% | 93.7% | 105% | 102% | 112% | 120% | viability, T/C [16]: 109%; viability, T/C [17]: 111%; viability, T/C [18]: 106%; viability, T/C [19]: 119%; viability, T/C [20]: 123%; viability, T/C [21]: 101%; viability, T/C [22]: 107%; viability, T/C [23]: 114%; viability, T/C [24]: 124%; viability, T/C [25]: 108%; viability, T/C [26]: 101%; viability, T/C [27]: 104%; viability, T/C [28]: 100%; viability, T/C [29]: 100%; viability, T/C [30]: 99.8%
